In US20200009135A1, “THERAPEUTIC APPLICATIONS OF MALT1 INHIBITORS” (MEDIVIR AB, priority 2017, published 2020):

Tests used:
Full-length MALT1 enzyme = biological target: T1, Full-length MALT1 enzyme (Homo sapiens, UniProt Q9UDY8); assay: MALT1 biochemical assay; conditions: 2 nM enzyme, 50 μM Ac-Leu-Arg-Ser-Arg-AMC substrate
T1 construct: Full-length MALT1 enzyme at 2 nM was assayed in 50 mM HEPES
T1 sequence (Q9UDY8 1-824): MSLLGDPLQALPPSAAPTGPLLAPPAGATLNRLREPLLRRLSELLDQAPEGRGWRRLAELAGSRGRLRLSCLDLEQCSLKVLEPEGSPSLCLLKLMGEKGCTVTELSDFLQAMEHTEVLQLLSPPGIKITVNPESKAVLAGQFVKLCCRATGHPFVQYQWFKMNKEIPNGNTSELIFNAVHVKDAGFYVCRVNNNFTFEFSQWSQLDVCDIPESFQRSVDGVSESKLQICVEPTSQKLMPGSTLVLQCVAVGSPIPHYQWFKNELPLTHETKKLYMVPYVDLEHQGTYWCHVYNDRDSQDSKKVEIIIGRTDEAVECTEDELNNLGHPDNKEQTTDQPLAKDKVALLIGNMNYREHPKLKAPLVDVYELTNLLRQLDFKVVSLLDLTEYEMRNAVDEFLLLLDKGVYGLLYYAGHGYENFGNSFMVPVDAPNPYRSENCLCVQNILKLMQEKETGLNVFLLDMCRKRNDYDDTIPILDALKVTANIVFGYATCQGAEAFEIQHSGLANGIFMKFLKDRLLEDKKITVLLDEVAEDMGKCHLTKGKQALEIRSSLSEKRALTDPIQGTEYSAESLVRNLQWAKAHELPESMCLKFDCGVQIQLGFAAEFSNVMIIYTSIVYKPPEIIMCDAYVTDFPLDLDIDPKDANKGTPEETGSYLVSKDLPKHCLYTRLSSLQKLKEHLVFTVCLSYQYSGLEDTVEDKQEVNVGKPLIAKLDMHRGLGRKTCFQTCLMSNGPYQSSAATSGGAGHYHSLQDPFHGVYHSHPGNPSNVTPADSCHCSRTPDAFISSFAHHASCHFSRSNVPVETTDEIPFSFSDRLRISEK
Protocol: Full-length MALT1 enzyme at 2 nM was assayed in 50 mM HEPES, 100 mM NaCl, 0.9 M NaCitrate, 1 mM EDTA, pH 7.5, with 50 μM Ac-Leu-Arg-Ser-Arg-AMC as substrate. Compound was added in an 11-point concentration series from 100 μM to 1 nM in half-log dilution.
Compounds were distributed in 384 well plates by Echo550, and the assay was run with fluorescence readings at 460 nm, every 2 minutes for 60 minutes.

MALT1 = biological target: T2, MALT1 (Homo sapiens, UniProt Q9UDY8); assay: HOIL1 cleavage assay (in-cell MALT1 protease activity, Jurkat E6-1); assay type: cell-based; conditions: Jurkat E6-1, PMA/Ionomycin-induced cleavage of HOIL1, 60 minutes
T2 construct: endogenous in cells; host or cells: Jurkat clone E6-1 (ATCC)
T2 sequence (Q9UDY8 1-824): T1 sequence (Q9UDY8 1-824)
Protocol: In-cell MALT1 protease activity, was measured as inhibition of PMA/lonomycin-induced cleavage of HOIL1. Day 1 0.75×10^6 cells/well were seeded in a 48 well plate. Day 2 cells were stimulated by PMA/lonomycin (1:500 dilution) with addition of vehicle or compound in a 5-point concentration series, 1:3 dilution.

[1] = tested on: IL-2 expression in Jurkat (E6-1) cells; assay: IL-2 expression assay (down-stream MALT1 activity, Jurkat E6-1); assay type: cell-based; conditions: Homo sapiens; Jurkat E6-1, PMA/Ionomycin stimulation, 24 hours
Protocol: Down-stream MALT1 activity was measured by PMA/lonomycin-induced expression of IL-2 in Jurkat (E6-1) cells. Compounds were distributed in a 96 well plate, 8-point concentration series, 1:3 dilution. Jurkat clone E6-1, 4×10^4 cells/well, were added, and stimulated by PMA/lonomycin (1:500 dilution) for 24 hours at 37° C. Measurement was performed using a MesoScale Sector S600 with the Human IL-2 Tissue Culture kit according to the manufacturers recommendation.

Compound	IC50 (Full-length MALT1 enzyme) [nM]	IC50 (MALT1) [µM]	IC50 [1] [µM]
CO[C@@H](C)c1c(NC(=O)Nc2cnc(-n3cc(CN)cn3)c(Cl)c2)cnc2cc(Cl)nn12 [Example 1, (S)-1-(6-(4-(aminomethyl)-1H-pyrazol-1-yl)-5-chloropyridin-3-yl)-3-(2-chloro-7-(1-methoxyethyl)pyrazolo[1,5-a]pyrimidin-6-yl)urea]	37.5	0.04	0.03
CO[C@@H](C)c1c(NC(=O)Nc2ccnc(C(F)(F)F)c2)cnc2cc(Cl)nn12 [Example 3, (S)-1-(2-Chloro-7-(1-methoxyethyl)pyrazolo[1,5-a]pyrimidin-6-yl)-3-(2-(trifluoromethyl)pyridin-4-yl)urea]	–	–	0.02
